Measured values taken from US6900190B2, “Active substance combinations having insecticidal and acaricidal properties” (priority 2000, dated 2005).

Tested on: common spider mite (Tetranychus urticae)
Assay: Tetranychus test (OP-resistant/spray treatment)
Type: in vivo
Conditions: single active compound, 0.32 ppm, spray treatment of infested bean plants (Phaseolus vulgaris), OP-resistant mites
Description: The expected action for a given combination of two active compounds can be calculated as follows, using the formula of S. R. Colby, Weeds 15 (1967), 20-22: […]
If • X is the efficacy, expressed as % of the untreated control, when employing active compound A at an application rate of m g/ha or in a concentration of m ppm, • Y is the efficacy, expressed as % of the untreated control, when employing active compound B at an application rate of n g/ha or in a concentration of n ppm and • E is the efficacy, expressed as % of the untreated control, when employing active compounds A and B at application rates of m and n g/ha or in a concentration of m and n ppm, then [formula]
If the actual insecticidal kill rate exceeds the calculated value, the action of the combination is superadditive, i.e. a synergistic effect is present. In this case, the actually observed insecticidal kill rate must exceed the value calculated using the above formula for the expected insecticidal kill rate (E).
Tetranychus test (OP-resistant/spray treatment) […]
After the desired period of time, the effect in % is determined. […] The kill rates determined are calculated using Colby's formula.

Row | SMILES | Kill rate in % after 14 d
1 | COP(N)(=O)SC (centres unmarked) [Metamidophos, methamidophos] | 0%
2 | Cc1cc(C)c(C2=C(OC(=O)CC(C)(C)C)C3(CCCC3)OC2=O)c(C)c1 [Ex. (I-b-1)] | 0%
